In EPA's ToxValDB 9.5:

How the values were obtained:
Rattus norvegicus [1] = system: Rattus norvegicus
Rattus norvegicus [2] = conditions: short-term, duration: 28 days, oral, gavage, F, Sprague-Dawley
[3] = short-term, duration: 14 days, oral, gavage, M, Sprague-Dawley, Body Weight: Decreases in body weight at 3 and 5 mg/kg/day (18 and 39%)
[4] = short-term, duration: 14 days, oral, gavage, M, Sprague-Dawley, Immunotoxicological: Decreased relative spleen weight and increases in cytokine levels
[5] = short-term, duration: 14 days, oral, gavage, M, Sprague-Dawley, Other Noncancer (Glucose: Increased serum glucose levels (1.11-fold at 1 mg/kg/day and 1.16-fold at 5 mg/kg/day)
[6] = short-term, duration: 14 days, oral, gavage, M, Sprague-Dawley, Reproductive: 85.4% decrease in serum testosterone and […] increase in estradiol levels at 5 mg/kg/day / atrophy of seminiferous tubule …
[7] = short-term, duration: 14 days, oral, gavage, M, Sprague-Dawley, Reproductive: Large vacuoles between testicular Sertoli cells and spermatogonia

O=C(O)C(F)(F)C(F)(F)C(F)(F)C(F)(F)C(F)(F)C(F)(F)C(F)(F)C(F)(F)F [Perfluorononanoic acid]
0.2 mg/kg-day: NOAEL (Rattus norvegicus [1]; [5])
6.25 mg/kg-day: LOEL (Rattus norvegicus [2]; Clinical chemistry_Direct bilirubin) | LOEL (Rattus norvegicus [2]; Nonneoplastic effects_Liver - Hepatocyte, hypertrophy) | LOEL (Rattus norvegicus [2]; Organ weights_Spleen - Relative)
25 mg/kg-day: NOEL (Rattus norvegicus [2]; Clinical chemistry_Aspartate aminotransferase) | NOEL (Rattus norvegicus [2]; Clinical chemistry_Cholesterol) | NOEL (Rattus norvegicus [2]; Clinical chemistry_Creatinine kinase) | NOEL (Rattus norvegicus [2]; Clinical chemistry_Indirect bilirubin) | NOEL (Rattus norvegicus [2]; Clinical chemistry_Thyroid stimulating hormone) | NOEL (Rattus norvegicus [2]; Clinical chemistry_Total bilirubin) | NOEL (Rattus norvegicus [2]; Clinical chemistry_Total triiodothyronine) | NOEL (Rattus norvegicus [2]; Clinical chemistry_Triglycerides) | NOEL (Rattus norvegicus [2]; Hematology_Erythrocytes) | NOEL (Rattus norvegicus [2]; Hematology_Hematocrit) | NOEL (Rattus norvegicus [2]; Hematology_Hemoglobin) | NOEL (Rattus norvegicus [2]; Hematology_Mean corpuscular hemoglobin concentration) | NOEL (Rattus norvegicus [2]; Hematology_Mean corpuscular volume) | NOEL (Rattus norvegicus [2]; Hematology_Platelets) | NOEL (Rattus norvegicus [2]; Hematology_Reticulocytes) | NOEL (Rattus norvegicus [2]; Nonneoplastic effects_Kidney - Nephropathy, chronic progressive) | NOEL (Rattus norvegicus [2]; Nonneoplastic effects_Liver - Hepatocyte, vacuolization cytoplasmic) | LOEL (Rattus norvegicus [2]; Nonneoplastic effects_Nose - Olfactory epithelium, degeneration) | NOEL (Rattus norvegicus [2]; Nonneoplastic effects_Nose - Olfactory epithelium, hyperplasia) | NOEL (Rattus norvegicus [2]; Nonneoplastic effects_Nose - Olfactory epithelium, inflammation, suppurative) | NOEL (Rattus norvegicus [2]; Nonneoplastic effects_Nose - Respiratory epithelium, hyperplasia) | NOEL (Rattus norvegicus [2]; Nonneoplastic effects_Nose - Respiratory epithelium, inflammation, chronic active) | NOEL (Rattus norvegicus [2]; Nonneoplastic effects_Spleen - Extramedullary hematopoiesis, increased) | NOEL (Rattus norvegicus [2]; Nonneoplastic effects_Thymus - Lymphocyte, apoptosis) | NOEL (Rattus norvegicus [2]; Nonneoplastic effects_Thyroid gland - Follicular cell hypertrophy) | NOEL (Rattus norvegicus [2]; Organ weights_R. adrenal gland - Absolute) | NOEL (Rattus norvegicus [2]; Organ weights_R. adrenal gland - Relative) | NOEL (Rattus norvegicus [2]; Organ weights_Thymus - Absolute)
5 mg/kg-day: LOAEL (Rattus norvegicus [1]; developmental, duration: 20 days, oral, gavage, M/F, Sprague-Dawley, Body Weight: Reduced maternal body weight / approximately 33% on GD 7 and 10% on GD 20 + Developmental: Decreased birth weight in female …) | NOAEL (Rattus norvegicus [1]; short-term, duration: 14 days, oral, gavage, M, Sprague-Dawley, Hepatic: Decreased HDL levels at ?1 mg/kg/day) | NOAEL (Rattus norvegicus [1]; short-term, duration: 14 days, oral, gavage, M, Sprague-Dawley, Hepatic: Hepatocellular vacuolation and lipid accumulation at 5 mg/kg/day) | LOAEL (Rattus norvegicus [1]; [4]) | LOAEL (Rattus norvegicus [1]; [6]) | LOAEL (Rattus norvegicus [1]; [7]) | LOAEL (Rattus norvegicus [1]; short-term, duration: 14 days, oral, gavage, Wistar, Body Weight: Decreased body weight / magnitude of effect was not reported + Endocrine: Decreased androstenedione and testosterone …)
590 mg/m3: LOAEL (Rattus norvegicus [1]; acute, duration: 4 hours, inhalation, nose only, M, CD, Body Weight: Reduced 18% 5 days after exposure + Respiratory: Lung noise / labored breathing during and after exposure)
1 mg/kg-day: NOAEL (Rattus norvegicus [1]; [3]) | LOAEL (Rattus norvegicus [1]; short-term, duration: 14 days, oral, gavage, M, Sprague-Dawley, Immunotoxicological: 24% increase in relative thymus weight at 1 mg/kg/day / 20% decrease in thymus weight at 3 or 5 mg/kg/day, increases …) | LOAEL (Rattus norvegicus [1]; [5])
12.5 mg/kg-day: LOEL (Rattus norvegicus [2]; Nonneoplastic effects_Bone marrow - Hypocellularity) | LOEL (Rattus norvegicus [2]; Nonneoplastic effects_Forestomach - Epithelium, hyperplasia) | LOEL (Rattus norvegicus [2]; Nonneoplastic effects_Liver - Hepatocyte, Necrosis) | LOEL (Rattus norvegicus [2]; Nonneoplastic effects_Lymph nodes - Mandibular, atrophy) | LOEL (Rattus norvegicus [2]; Nonneoplastic effects_Lymph nodes - Mesenteric, atrophy) | LOEL (Rattus norvegicus [2]; Nonneoplastic effects_Spleen - Atrophy) | LOEL (Rattus norvegicus [2]; Nonneoplastic effects_Thymus - Atrophy)
3 mg/kg-day: LOAEL (Rattus norvegicus [1]; [3]) | NOAEL (Rattus norvegicus [1]; [4]) | NOAEL (Rattus norvegicus [1]; [6]) | NOAEL (Rattus norvegicus [1]; [7])
820 mg/m3: LOAEL (Rattus norvegicus [1]; acute, duration: 4 hours, inhalation, nose only, M, CD, Death: 14-day LC50)
67 mg/m3: NOAEL (Rattus norvegicus [1]; acute, duration: 4 hours, inhalation, nose only, M, CD, Body Weight: Reduced 18% 5 days after exposure + Hepatic: 28% increase in absolute liver weight 5 days after exposure to ?67 mg/m3 + …)
1.56 mg/kg-day: LOEL (Rattus norvegicus [2]; Clinical chemistry_Albumin) | LOEL (Rattus norvegicus [2]; Clinical chemistry_Albumin/globulin ratio) | LOEL (Rattus norvegicus [2]; Clinical chemistry_Globulin) | LOEL (Rattus norvegicus [2]; Clinical chemistry_Sorbitol dehydrogenase) | LOEL (Rattus norvegicus [2]; Clinical chemistry_Testosterone) | LOEL (Rattus norvegicus [2]; Clinical chemistry_Total protein) | LOEL (Rattus norvegicus [2]; Gene expression_Acox1) | LOEL (Rattus norvegicus [2]; Gene expression_Cyp2b1) | LOEL (Rattus norvegicus [2]; Gene expression_Cyp2b2) | LOEL (Rattus norvegicus [2]; Gene expression_Cyp4a1) | LOEL (Rattus norvegicus [2]; Nonneoplastic effects_Liver - Hepatocyte, cytoplasmic alteration) | LOEL (Rattus norvegicus [2]; Organ weights_Liver - Absolute) | LOEL (Rattus norvegicus [2]; Organ weights_Liver - Relative) | LOEL (Rattus norvegicus [2]; Organ weights_R. kidney - Absolute) | LOEL (Rattus norvegicus [2]; Organ weights_R. kidney - Relative)
3.12 mg/kg-day: LOEL (Rattus norvegicus [2]; Clinical chemistry_Alanine aminotransferase) | LOEL (Rattus norvegicus [2]; Clinical chemistry_Alkaline phosphatase) | LOEL (Rattus norvegicus [2]; Clinical chemistry_Free thyroxine) | LOEL (Rattus norvegicus [2]; Clinical chemistry_Total bile acids) | LOEL (Rattus norvegicus [2]; Clinical chemistry_Total thyroxine) | LOEL (Rattus norvegicus [2]; Organ weights_Spleen - Absolute)
